“And” between values parts separate entries of the source, which are not always exact repeats. Equal entries are not always repeated. Where two headings read alike, the source gives them in different places. Marks after values point to notes of the source that are not given here. Numbered stars: 1 amine (or outer) side, 2 acyl side, 3 side chain; on linkers, the order of the positions; unused ones are H or OH. Bridge positions count the residues as written; N and C are the ends. Square brackets hold non-standard residues; d marks the D form. Ends that are not written are not given here. Peptide text beside a SMILES is read from it. β3hW = N[C@H](CC(=O)O)Cc1c[nH]c2ccccc12; X1 = O=C([C@H]1CNC[C@@H]1N[*:1])[*:2]; β3hE = N[C@@H](CCC(=O)O)CC(=O)O; β3hN = NC(=O)C[C@H](N)CC(=O)O; β3hL = CC(C)C[C@H](N)CC(=O)O; Nle = CCCC[C@H](N)C(=O)O

As usually defined, the Ki is the dissociation constant of the complex between target and ligand, obtained from inhibition or displacement. Low values mean a stronger hold on the target, high ones a looser hold on the target.

In data set [1] the target is T1, homodimeric VEGF165 (Homo sapiens, UniProt P15692).
T1 sequence (P15692 1-191 isoform P15692-4): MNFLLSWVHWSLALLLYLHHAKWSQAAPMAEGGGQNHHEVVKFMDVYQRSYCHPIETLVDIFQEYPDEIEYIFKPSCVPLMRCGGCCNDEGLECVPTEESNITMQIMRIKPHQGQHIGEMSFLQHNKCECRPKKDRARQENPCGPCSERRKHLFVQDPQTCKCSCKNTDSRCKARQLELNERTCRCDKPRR
The data set can be described thus: competition fluorescence polarization. The class given is binding. A general note: Polarisation of emitted light reports the rotation of a fluorescent probe.

Data set [2] relates to human umbilical vein endothelial cells (HUVECs). The data set can be described thus: VEGF-induced HUVEC proliferation. The conditions noted are these: 10 ng/mL VEGF; tested above and below the measured Ki.
Data set [3] concerns the target proteinase K (Parengyodontium album, UniProt P06873). The experiment in a line: proteinase K degradation. The conditions noted are these: for stability to proteinase K relative to v114*: ratio of t1/2 to that of v114*, standard conditions.
The nature of data set [4]: toxicity control studies. The following applies: at the inhibitory concentrations.
Data set [5] concerns human umbilical vein endothelial cells (HUVECs). The following applies: cited from earlier work.
Data set [6] concerns the target v107. The experiment in a line: competition.
The target of data set [7] is T2, v114 (disulfide 5-15).
T2 chain: VEPNCDIHVMWEWECFERL
The experiment in a line: competition fluorescence polarization.

Sequence of proteinase K (P06873 106-384): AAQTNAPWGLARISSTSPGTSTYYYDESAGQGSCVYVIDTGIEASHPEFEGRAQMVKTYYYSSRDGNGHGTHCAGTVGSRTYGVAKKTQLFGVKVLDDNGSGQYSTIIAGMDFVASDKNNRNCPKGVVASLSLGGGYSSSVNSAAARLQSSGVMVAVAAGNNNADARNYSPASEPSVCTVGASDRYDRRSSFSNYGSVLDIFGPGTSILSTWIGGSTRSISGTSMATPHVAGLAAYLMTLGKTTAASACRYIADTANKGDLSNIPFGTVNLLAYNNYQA

`CCCC[C@@H]1NC(=O)[C@H](C(C)C)NC(=O)[C@H](Cc2c[nH]cn2)NC(=O)[C@H]([C@@H](C)CC)NC(=O)[C@H](CC(=O)O)NC(=O)[C@@H](NC(=O)[C@H](CC(N)=O)NC(=O)[C@@H]2CCCN2C(=O)C[C@H](CCC(=O)O)NC(=O)[C@@H](N)C(C)C)CSSC[C@@H](C(=O)N[C@@H](Cc2ccccc2)C(=O)N[C@H]2CNC[C@@H]2C(=O)N[C@@H](CCCNC(=N)N)C(=O)N[C@H](CC(N)=O)CC(C)C)NC(=O)[C@H](CCC(=O)O)NC(=O)[C@H](Cc2c[nH]c3ccccc23)NC(=O)C[C@H](CCC(=O)O)NC(=O)[C@H](Cc2c[nH]c3ccccc23)NC1=O` [compound 2] (H-V[β3hE]PNCDIHV[Nle]W[β3hE]WECF[X1]R[β3hL]-NH2; disulfide 5-15; N-terminus and C-terminus assumed): the “loss of affinity for VEGF (higher Ki) relative to v114*” value (shortened to “loss … (higher Ki) relative to v114*”) in data set [1] (ratio of Ki to Ki of v114*) came to 12 fold.

For the molecule `CCCC[C@@H]1NC(=O)[C@H](C(C)C)NC(=O)[C@H](Cc2c[nH]cn2)NC(=O)[C@H]([C@@H](C)CC)NC(=O)[C@H](CC(=O)O)NC(=O)[C@@H](NC(=O)C[C@H](CC(N)=O)NC(=O)[C@@H]2CCCN2C(=O)C[C@H](CCC(=O)O)NC(=O)[C@@H](N)C(C)C)CSSC[C@@H](C(=O)N[C@@H](Cc2ccccc2)C(=O)N[C@H]2CNC[C@@H]2C(=O)N[C@@H](CCCNC(=N)N)C(=O)N[C@H](CC(N)=O)CC(C)C)NC(=O)[C@H](CCC(=O)O)NC(=O)[C@H](Cc2c[nH]c3ccccc23)NC(=O)C[C@H](CCC(=O)O)NC(=O)[C@H](Cc2c[nH]c3ccccc23)NC1=O` [compound 3] (H-V[β3hE]P[β3hN]CDIHV[Nle]W[β3hE]WECF[X1]R[β3hL]-NH2; disulfide 5-15; N-terminus and C-terminus assumed), the “inhibition of VEGF-stimulated HUVEC proliferation, potency in words” value in data set [2] is listed as “less potent than v114*”. Further, the principal cleavage site entry in data set [3] (proteinase K, mass spectroscopic analysis) is “between ^nL10 and W11”. In addition, the “stability to proteinase K relative to v114*” value in data set [3] (proteinase K) worked out at 15 fold. The “loss … (higher Ki) relative to v114*” value in data set [1] (ratio of Ki to Ki of v114*) was 27 fold and ~ 27 fold. Further, the toxicity entry in data set [4] is on record as “not toxic”.

Consider `CCCC[C@@H]1NC(=O)[C@H](C(C)C)NC(=O)[C@H](Cc2c[nH]cn2)NC(=O)[C@H]([C@@H](C)CC)NC(=O)[C@H](CC(=O)O)NC(=O)[C@@H](NC(=O)C[C@H](CC(N)=O)NC(=O)[C@@H]2CCCN2C(=O)C[C@H](CCC(=O)O)NC(=O)[C@@H](N)C(C)C)CSSC[C@@H](C(=O)N[C@@H](Cc2ccccc2)C(=O)N[C@H]2CNC[C@@H]2C(=O)N[C@@H](CCCNC(=N)N)C(=O)N[C@H](CC(N)=O)CC(C)C)NC(=O)[C@H](CCC(=O)O)NC(=O)[C@H](Cc2c[nH]c3ccccc23)NC(=O)C[C@H](CCC(=O)O)NC(=O)C[C@H](Cc2c[nH]c3ccccc23)NC1=O` [compound 4] (H-V[β3hE]P[β3hN]CDIHV[Nle][β3hW][β3hE]WECF[X1]R[β3hL]-NH2; disulfide 5-15; N-terminus and C-terminus assumed), for which the “inhibition of VEGF-stimulated HUVEC proliferation, potency in words” value in data set [2] is listed as “less potent than v114*”. Further, in data set [3], the “resistance to proteolysis relative to 3” value is recorded as > 10 fold. For the same molecule, in data set [3] (proteinase K), the “stability to proteinase K relative to v114*” value is reported as ~190 fold. Also, in data set [1], the “affinity for VEGF lower than that of 3” value was ~ 3 fold and the “loss … (higher Ki) relative to v114*” value is ~ 77 fold. Also, the toxicity result in data set [4] is “not toxic”.

For `CC[C@H](C)[C@@H]1NC(=O)[C@H](CC(=O)O)NC(=O)[C@@H](NC(=O)[C@H](CC(N)=O)NC(=O)[C@@H]2CCCN2C(=O)[C@H](CCC(=O)O)NC(=O)[C@@H](N)C(C)C)CSSC[C@@H](C(=O)N[C@@H](Cc2ccccc2)C(=O)N[C@@H](CCC(=O)O)C(=O)N[C@@H](CCCNC(=N)N)C(=O)N[C@@H](CC(C)C)C(N)=O)NC(=O)[C@H](CCC(=O)O)NC(=O)[C@H](Cc2c[nH]c3ccccc23)NC(=O)[C@H](CCC(=O)O)NC(=O)[C@H](Cc2c[nH]c3ccccc23)NC(=O)[C@H](CCSC)NC(=O)[C@H](C(C)C)NC(=O)[C@H](Cc2c[nH]cn2)NC1=O` [v114] (H-VEPNCDIHVMWEWECFERL-NH2; disulfide 5-15; N-terminus and C-terminus assumed), the “inhibition of VEGF-induced HUVEC proliferation” value in data set [5] is “inhibits”.

B1: VEGF165 VEGF165 (protein)
chain: APMAEGGGQNHHEVVKFMDVYQRSYCHPIETLVDIFQEYPDEIEYIFKPSCVPLMRCGGCCNDEGLECVPTEESNITMQIMRIKPHQGQHIGEMSFLQHNKCECRPKKDRARQEKKSVRGKGKGQKRKRKKSRYKSWSVPCGPCSERRKHLFVQDPQTCKCSCKNTDSRCKARQLELNERTCRCDKPRR
With B1, the Ki stood at 600 nM in data set [6] and 70 nM in data set [7].

The record behind these values is article PMC3551614 (Journal of the American Chemical Society, 2012).
